Legend:
Assay in all cases: relative viability (nuclei count vs DMSO), 5 days (fraction); higher = more cells survive
NCI-H1792 = test system: NCI-H1792
Outline: (§1)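 The day after seeding in 1536-well plates, lung cancer cell lines were treated by pin tool with a single drug, or with a fixed anchor-drug dose together with five library-drug doses (not always all listed) in √10 steps. After 5 days, a combined fix-and-stain solution (final 0.05% Triton X-100, 1% formaldehyde, 1 ug/ml Hoechst) was added. Nuclei counted on 4× images gave relative viability as treated counts over vehicle counts, reported as the median of duplicate plates.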

LOU-NH91 = test system: LOU-NH91
Outline: as §1

NCI-H1437 = test system: NCI-H1437
Outline: as §1

NCI-H2170 = test system: NCI-H2170
Outline: as §1

NCI-H23 = test system: NCI-H23
Outline: as §1

NCI-H322M = test system: NCI-H322M
Outline: as §1

ChaGo-K-1 = test system: ChaGo-K-1
Outline: as §1

NCI-H1755 = test system: NCI-H1755
Outline: as §1

HOP-62 = test system: HOP-62
Outline: as §1

NCI-H650 = test system: NCI-H650
Outline: as §1

NCI-H1355 = test system: NCI-H1355
Outline: as §1

NCI-H2405 = test system: NCI-H2405
Outline: as §1

LCLC-97TM1 = test system: LCLC-97TM1
Outline: as §1

NCI-H441 = test system: NCI-H441
Outline: as §1

ABC-1 = test system: ABC-1
Outline: as §1

RERF-LC-KJ = test system: RERF-LC-KJ
Outline: as §1

HCC-78 = test system: HCC-78
Outline: as §1

NCI-H727 = test system: NCI-H727
Outline: as §1

NCI-H2085 = test system: NCI-H2085
Outline: as §1

In the case of O=C(O)CCCCC(CCSCc1ccccc1)SCc1ccccc1 (stereo not drawn) [CPI-613] + NC(=O)Nc1cc(-c2cccc(F)c2)sc1C(=O)N[C@H]1CCCNC1 [AZD7762] (partner 0.2 µM), the relative viability (NCI-H1792; first compound 5 µM) is reported as 0.691, the relative viability (NCI-H1792; first compound 15.81 µM) is reported as 0.616 and the relative viability (NCI-H1792; first compound 50 µM) is reported as 0.57. For the same molecule, the relative viability (NCI-H1792; first compound 158.11 µM) was 0.135, the relative viability (NCI-H1792; first compound 500 µM) was 0.047 and the relative viability (LOU-NH91; first compound 5 µM) was 0.74. For the same molecule, the relative viability (LOU-NH91; first compound 15.81 µM) was 0.7, the relative viability (LOU-NH91; first compound 50 µM) was 0.753 and the relative viability (LOU-NH91; first compound 158.11 µM) was 0.633. For the same molecule, the relative viability (LOU-NH91; first compound 500 µM) was 0.241, the relative viability (NCI-H1437; first compound 5 µM) was 1.11 and the relative viability (NCI-H1437; first compound 15.81 µM) was 1.13. For the same molecule, the relative viability (NCI-H1437; first compound 50 µM) was 1.08, the relative viability (NCI-H1437; first compound 158.11 µM) was 0.604 and the relative viability (NCI-H1437; first compound 500 µM) was 0.855. The relative viability (NCI-H2170; first compound 5 µM) was 0.878, the relative viability (NCI-H2170; first compound 15.81 µM) was 0.826 and the relative viability (NCI-H2170; first compound 50 µM) was 0.865. The relative viability (NCI-H2170; first compound 158.11 µM) was 0.607, the relative viability (NCI-H2170; first compound 500 µM) was 0.231 and the relative viability (NCI-H23; first compound 5 µM) was 0.212. For the same molecule, the relative viability (NCI-H23; first compound 15.81 µM) was 0.274, the relative viability (NCI-H23; first compound 50 µM) was 0.218 and the relative viability (NCI-H23; first compound 158.11 µM) was 0.151. It also gave a relative viability (NCI-H23; first compound 500 µM) of 0.0026, a relative viability (NCI-H322M; first compound 5 µM) of 0.547 and a relative viability (NCI-H322M; first compound 15.81 µM) of 0.508. The relative viability (NCI-H322M; first compound 50 µM) was 0.606, the relative viability (NCI-H322M; first compound 158.11 µM) was 0.638 and the relative viability (NCI-H322M; first compound 500 µM) was 0.269. It also gave a relative viability (ChaGo-K-1; first compound 5 µM) of 0.827, a relative viability (ChaGo-K-1; first compound 15.81 µM) of 0.778 and a relative viability (ChaGo-K-1; first compound 50 µM) of 0.85. For the same molecule, the relative viability (ChaGo-K-1; first compound 158.11 µM) was 0.536, the relative viability (ChaGo-K-1; first compound 500 µM) was 0.436 and the relative viability (NCI-H1755; first compound 5 µM) was 0.383. It also gave a relative viability (NCI-H1755; first compound 15.81 µM) of 0.4, a relative viability (NCI-H1755; first compound 50 µM) of 0.319 and a relative viability (NCI-H1755; first compound 158.11 µM) of 0.397. For the same molecule, the relative viability (NCI-H1755; first compound 500 µM) was 0.375, the relative viability (HOP-62; first compound 5 µM) was 0.703 and the relative viability (HOP-62; first compound 15.81 µM) was 0.398. For the same molecule, the relative viability (HOP-62; first compound 50 µM) was 0.649, the relative viability (HOP-62; first compound 158.11 µM) was 0.235 and the relative viability (HOP-62; first compound 500 µM) was 0.216. It also gave a relative viability (NCI-H650; first compound 5 µM) of 1.01, a relative viability (NCI-H650; first compound 15.81 µM) of 0.925 and a relative viability (NCI-H650; first compound 50 µM) of 1.03. The relative viability (NCI-H650; first compound 158.11 µM) was 0.49, the relative viability (NCI-H650; first compound 500 µM) was 0.655 and the relative viability (NCI-H1355; first compound 5 µM) was 0.721. The relative viability (NCI-H1355; first compound 15.81 µM) was 0.741, the relative viability (NCI-H1355; first compound 50 µM) was 0.772 and the relative viability (NCI-H1355; first compound 158.11 µM) was 0.52. For the same molecule, the relative viability (NCI-H1355; first compound 500 µM) was 0.185, the relative viability (NCI-H2405; first compound 5 µM) was 0.755 and the relative viability (NCI-H2405; first compound 15.81 µM) was 0.63. For the same molecule, the relative viability (NCI-H2405; first compound 50 µM) was 0.736, the relative viability (NCI-H2405; first compound 158.11 µM) was 0.557 and the relative viability (NCI-H2405; first compound 500 µM) was 0.235. It also gave a relative viability (LCLC-97TM1; first compound 5 µM) of 0.293, a relative viability (LCLC-97TM1; first compound 15.81 µM) of 0.225 and a relative viability (LCLC-97TM1; first compound 50 µM) of 0.229. For the same molecule, the relative viability (LCLC-97TM1; first compound 158.11 µM) was 0.125, the relative viability (LCLC-97TM1; first compound 500 µM) was 0.0538 and the relative viability (NCI-H441; first compound 5 µM) was 1.09. For the same molecule, the relative viability (NCI-H441; first compound 15.81 µM) was 0.803, the relative viability (NCI-H441; first compound 50 µM) was 1.39 and the relative viability (NCI-H441; first compound 158.11 µM) was 0.788. For the same molecule, the relative viability (NCI-H441; first compound 500 µM) was 0.0052, the relative viability (ABC-1; first compound 5 µM) was 1.18 and the relative viability (ABC-1; first compound 15.81 µM) was 0.696. The relative viability (ABC-1; first compound 158.11 µM) was 0.471, the relative viability (ABC-1; first compound 500 µM) was 0.71 and the relative viability (RERF-LC-KJ; first compound 5 µM) was 0.98. For the same molecule, the relative viability (RERF-LC-KJ; first compound 15.81 µM) was 0.917, the relative viability (RERF-LC-KJ; first compound 50 µM) was 1 and the relative viability (RERF-LC-KJ; first compound 158.11 µM) was 0.94. The relative viability (RERF-LC-KJ; first compound 500 µM) was 0.921, the relative viability (HCC-78; first compound 15.81 µM) was 0.606 and the relative viability (HCC-78; first compound 50 µM) was 0.674. For the same molecule, the relative viability (HCC-78; first compound 158.11 µM) was 0.543, the relative viability (HCC-78; first compound 500 µM) was 0.738 and the relative viability (NCI-H727; first compound 5 µM) was 0.617. For the same molecule, the relative viability (NCI-H727; first compound 15.81 µM) was 0.547, the relative viability (NCI-H727; first compound 50 µM) was 0.669 and the relative viability (NCI-H727; first compound 158.11 µM) was 0.555. For the same molecule, the relative viability (NCI-H727; first compound 500 µM) was 0.561, the relative viability (NCI-H2085; first compound 5 µM) was 0.895 and the relative viability (NCI-H2085; first compound 15.81 µM) was 0.785. It also gave a relative viability (NCI-H2085; first compound 50 µM) of 0.895, a relative viability (NCI-H2085; first compound 158.11 µM) of 0.856 and a relative viability (NCI-H2085; first compound 500 µM) of 0.209.
